{
  "source": "patent US20060052312A1",
  "about": "“Paclitaxel hybrid derivatives” (priority 2003, published 2006)",
  "key": {"[1]": {"test_system": "MCF7 human breast cancer cell", "assay": "Inhibition of MCF7 human breast cancer cell growth (non-MDR cell line)", "assay_type": "cell-based", "conditions": "read-out: Potency (dose that inhibits MCF7 human breast cancer cell growth by 50%)"}, "[2]": {"test_system": "MDR over non-MDR human breast cancer cell lines", "assay": "MDR liability: growth inhibition in MDR over non-MDR human breast cancer cell lines", "assay_type": "cell-based"}, "[3]": {"assay": "Stability of PAC esters in aqueous media at pH 7.4 and 37° C.", "assay_type": "physicochemical", "conditions": "read-out: T½ (apparent half-life in aqueous media) (converted)"}},
  "data": [
    {"smiles": "CC(=O)O[C@H]1C(=O)[C@@]2(C)[C@H]([C@H](OC(=O)c3ccccc3)[C@]3(O)C[C@H](OC(=O)[C@H](O)[C@@H](NC(=O)c4ccccc4)c4ccccc4)C(C)=C1C3(C)C)[C@]1(OC(C)=O)CO[C@@H]1C[C@@H]2O", "note": "[PAC, Paclitaxel]", "values": [
      {"measurement": "IC50", "setting": "[1]", "result": 6.9, "unit": "nM"},
      {"measurement": "MDR liability", "setting": "[2]", "result": "about 1000 fold"},
      {"measurement": "MDR Liability (ratio of doses inhibiting growth by 50% in MDR over non-MDR human breast cancer cell lines)", "setting": "[2]; MDR over non-MDR human breast cancer cell lines", "result": 1041},
      {"measurement": "half-life", "setting": "[3]", "result": 11.6, "unit": "days"}
    ]}
  ]
}
